Read-outs that look alike come from different tables or passages of the source.
How the values were obtained:
Experiment in all cases: 3H-TdR (3H-thymidine) incorporation assay at 72 hr
[1] = tested on: SF-268; assay type: cell-based, Human; details: Homo sapiens
[2] = tested on: MCF-7; assay type: cell-based, Human; details: Homo sapiens
[3] = tested on: CEM/dCK-; assay type: cell-based; details: for IC50: Homo sapiens, CCRF-CEM; for Factor* (Resistance Factor = Ratio of dCK- on Wild-type CCRF-CEM): ratio of IC50 CEM/dCK- to CCRF-CEM, 24 h
Procedure: (§1) Table of IC50 Values (μM) for Controls
(§2) Exposition of 24 hr to drug, wash, incubated for another 48 hr (total of 72 hr assay)
(§3) (3H-Thymidine Incorporation Assay)

[4] = tested on: CCRF-CEM; assay type: cell-based; details: Homo sapiens, CCRF-CEM
Procedure: as §1, §2, §3

[5] = tested on: H-460; assay type: cell-based, Human; details: Homo sapiens
[6] = SF-268, read-out: IC50 SF-268 24 h, 24 h drug exposure, wash, another 48 hr, 3H-TdR incorporation at 72 hr
[7] = MCF7, read-out: IC50 MCF-7 24 h, 24 h drug exposure, wash, another 48 hr, 3H-TdR incorporation at 72 hr
[8] = read-out: IC50 CEM/dCK- 24 h, 24 h drug exposure, wash, another 48 hr, deoxycytidine kinase-deficient CCRF-CEM
[9] = read-out: IC50 CCRF-CEM 24 h, 24 h drug exposure, wash, another 48 hr, 3H-TdR incorporation at 72 hr
[10] = NCI-H460, read-out: IC50 H-460 24 h, 24 h drug exposure, wash, another 48 hr, 3H-TdR incorporation at 72 hr
[11] = SF-268, read-out: IC50 SF-268 24 h
[12] = MCF7, read-out: IC50 MCF-7 24 h
[13] = NCI-H460, read-out: IC50 H-460 24 h

Compound | IC50 [1, 6] [nM] | IC50 [2, 7] [nM] | IC50 [3, 8] [nM] | Factor* (Resistance Factor = Ratio of dCK- on Wild-type CCRF-CEM) [3] | IC50 [4, 9] [nM] | IC50 [5, 10] [nM] | IC50 [1, 11] [nM] | IC50 [2, 12] [nM] | IC50 ([3]; read-out: IC50 CEM/dCK- 24 h) [nM] | IC50 ([4]; read-out: IC50 CCRF-CEM 24 h) [nM] | IC50 [5, 13] [nM] | IC50 ([1]; SF-268, read-out: IC50 SF-268 (72 h), 72 h exposure, 3H-TdR incorporation at 72 hr) [nM] | IC50 ([2]; MCF7, read-out: IC50 MCF-7 (72 h), 72 h exposure, 3H-TdR incorporation at 72 hr) [nM] | IC50 ([5]; NCI-H460, read-out: IC50 H-460 (72 h), 72 h exposure, 3H-TdR incorporation at 72 hr) [nM]
COC(=O)CCCC(=O)OC[C@H]1OC[C@@H](n2ccc(N)nc2=O)O1 [Compound 82, PENTANEDIOIC ACID 4-(4- AMINO-2-OXO-2#H!- PYRIMIDIN-1-YL)- [1,3]DIOXOLAN-2- YLMETHYL ESTER METHYL ESTER] | 300 | 120 | > 100000 | 1,887 | 53 | 170 |  |  |  |  |  |  |  | 
COc1ccc(OC(=O)Nc2ccn([C@@H]3CO[C@H](COC(=O)Oc4ccc(OC)cc4)O3)c(=O)n2)cc1 [Compound 63] |  |  |  | 2,778 |  |  | 76 | 370 | > 100000 | 36 | 110 |  |  | 
CCOC(C)OC[C@H]1OC[C@@H](n2ccc(N)nc2=O)O1 (stereo in doubt) [Compound 91, 4-AMINO-1-[2-(1-ETHOXY- ETHOXYMETHYL)- [1,3]DIOXOLAN-4-YL]-1H- PYRIMIDIN-2-ONE] | 5500 | 1800 | > 100000 | 36 | 2800 | 630 |  |  |  |  |  |  |  | 
COCCOCOC[C@H]1OC[C@@H](n2ccc(N)nc2=O)O1 [Compound 62, 4-AMINO-1-[2-(2- METHOXY- ETHOXYMETHOXYMETHYL)- [1,3]DIOXOLAN-4-YL]-1H- PYRIMIDIN-2-ONE] | 4300 | 1700 | > 100000 | 288 | 350 | 890 |  |  |  |  |  |  |  | 
COc1cc2c(cc1OC)C(=O)/C(=C/c1cc(C)c(OC(=O)OC[C@H]3OC[C@@H](n4ccc(N)nc4=O)O3)c(C)c1)C2 [Compound 112] |  |  |  | 10 |  |  | 6.7 | 16 |  | 5.8 | 11 |  |  | 
Nc1ccn([C@@H]2CO[C@H](COC3CCCCO3)O2)c(=O)n1 (stereo in doubt) [Compound 41, 4-AMINO-1-[2- (TETRAHYDRO-PYRAN-2- YLOXYMETHYL)- [1,3]DIOXOLAN-4-YL]-1H- PYRIMIDIN-2-ONE] | > 100000 | 91000 | > 100000 | 5 | 21000 | 40000 |  |  |  |  |  |  |  | 
Nc1ccn([C@@H]2CO[C@H](COC(=O)Oc3ccc(Cl)cc3)O2)c(=O)n1.O=C(O)C(F)(F)F [Compound 105, CARBONIC ACID 4-(4- AMINO-2-OXO-2H- PYRIMIDIN-1-YL)- [1,3]DIOXOLAN-2- YLMETHYL ESTER 4- CHLORO-PHENYL ESTER TRIFLUOROACETATE SALT] | 71 | 68 | 79000 | 2393 | 33 | 80 |  |  |  |  |  |  |  | 
Nc1ccn([C@@H]2CO[C@H](COC3(c4ccccc4)c4ccccc4Oc4ccccc43)O2)c(=O)n1 [Compound 146, 4-AMINO-1-[2-(9-PHENYL- 9#H!-XANTHEN-9- YLOXYMETHYL)- [1,3]DIOXOLAN-4-YL]- 1#H!-PYRIMIDIN-2-ONE] | 28 | 1200 | 50000 | 385 | 130 | 780 |  |  |  |  |  |  |  | 
O=C(Nc1ccn([C@@H]2CO[C@H](CO)O2)c(=O)n1)Oc1ccccc1 [Compound 44, [1-(2-HYDROXYMETHYL- [1,3]DIOXOLAN-4-YL)-2- OXO-1,2-DIHYDRO- […]-4-YL]- CARBAMIC ACID PHENYL ESTER] |  |  |  | 1,300 |  |  | 890 | 970 | > 100000 | 77 | 370 |  |  | 
COc1ccc(OC(=O)OC[C@H]2OC[C@@H](n3ccc(NC(=O)OCc4ccccc4)nc3=O)O2)cc1 [Compound 116, CARBONIC ACID 4-(4- BENZYLOXYCARBONYLAMINO- 2-OXO-2H-PYRIMIDIN-1- YL)-[1,3]DIOXOLAN-2- YLMETHYL ESTER 4- METHOXY-PHENYL ESTER] | 2500 | 110 | > 100000 | >263 | 380 | 1400 |  |  |  |  |  |  |  | 
CCCCCCOC(=O)OC[C@H]1OC[C@@H](n2ccc(NC(=O)OCc3ccccc3)nc2=O)O1 [Compound 122, CARBONIC ACID 4-(4- BENZYLOXYCARBONYLAMINO- 2-OXO-2H-PYRIMIDIN-1- YL)-[1,3]DIOXOLAN-2- YLMETHYL ESTER HEXYL ESTER] | 570 | 210 | 61000 | 86 | 710 | 1900 |  |  |  |  |  |  |  | 
CC(C)(C)OC(=O)N(CCCCC(C)(C)C(=O)Nc1ccn([C@@H]2CO[C@H](CO)O2)c(=O)n1)Cc1ccccc1 [Compound 125, Benzyl-{5-[1-(2-hydroxymethyl-[1,3]dioxolan-4-yl)-2-oxo-1,2-dihydro-pyrimidin-4-ylcarbamoyl]-5-methyl-hexyl}-carbamic acid tert-butyl ester] | 600 | 16 | 7000 | 97 | 72 | 240 |  |  |  |  |  |  |  | 
CCOC(=O)Nc1ccn([C@@H]2CO[C@H](COC(=O)OCC)O2)c(=O)n1 [Compound 47, CARBONIC ACID 4-(4- ETHOXYCARBONYLAMINO-2- OXO-2H-PYRIMIDIN-1-YL)- [1,3]DIOXOLAN-2- YLMETHYL ESTER ETHYL ESTER] | 38000 | 2400 | > 100000 | 34 | 2900 | 1800 |  |  |  |  |  |  |  | 
O=C(NCc1ccccc1)Nc1ccn([C@@H]2CO[C@H](COC(=O)NCc3ccccc3)O2)c(=O)n1 [Compound 109, BENZYL-CARBAMIC ACID 4- [4-(3-BENZYL-UREIDO)-2- OXO-2#H!-PYRIMIDIN-1- YL]-[1,3]DIOXOLAN-2- YLMETHYL ESTER] | 4800 | 31000 | > 100000 | >100 | 1000 | 2600 |  |  |  |  |  |  |  | 
Nc1ccn([C@@H]2COC(COCOCc3ccccc3)O2)c(=O)n1 (stereo in doubt) [Compound 56, 4-AMINO-1-(2- BENZYLOXYMETHOXYMETHYL- [1,3]DIOXOLAN-4-YL)-1H- PYRIMIDIN-2-ONE] | 25000 | 2000 | > 100000 | 63 | 1600 | 7000 |  |  |  |  |  |  |  | 
CC(C)[C@H](N)C(=O)Nc1ccn([C@@H]2CO[C@H](CO)O2)c(=O)n1.O=C(O)C(F)(F)F [Compound 280, 2-Amino-N-[1-(2-hydoxymethyl-[1,3]dioxolan-4-yl)-2-oxo-1,2-dihydro-pyrimidin-4-yl]-3-methyl-butyramide; trifluoroacetic acid salt] | 18000 | 3100 | > 100000 | >53 | 1900 | 1900 |  |  |  |  |  |  |  | 
COc1ccc(OC(=O)OC[C@H]2OC[C@@H](n3ccc(N)nc3=O)O2)cc1 [Compound 118, CARBONIC ACID 4-(4- AMINO-2-OXO-2H- PYRIMIDIN-1-YL)- [1,3]DIOXOLAN-2- YLMETHYL ESTER 4- METHOXY-PHENYL ESTER] | 160 | 77 | > 100000 | >3571 | 28 | 22 |  |  |  |  |  |  |  | 
CC(C)C(=O)OC[C@H]1OC[C@@H](n2ccc(N)nc2=O)O1 [Compound 275, ISOBUTYRIC ACID 4-(4- AMINO-2-OXO-2H- PYRIMIDIN-1-YL)- [1,3]DIOXOLAN-2-YL METHYL ESTER] |  |  | 51600 | 9,214 | 5.6 |  |  |  |  |  |  | 13 | 4.4 | 1.2
CN(C)/C=N/c1ccn([C@@H]2CO[C@H](COC(=O)C(c3ccccc3)c3ccccc3)O2)c(=O)n1 [Compound 130, (2S,4S)-2-(2″- DIPHENYLACETOXYMETHYL)- 4-(4′-N,N- DIMETHYLAMINOMETHYLENE- CYTOSIN-1′-YL)-1,3- DIOXOLANE] | 110 | 50 | 75000 | 1,316 | 57 | 58 |  |  |  |  |  |  |  | 
COc1ccc(C(OC[C@H]2OC[C@@H](n3ccc(N)nc3=O)O2)(c2ccccc2)c2ccccc2)cc1 [Compound 134, 4-AMINO-1-{2-[(4- METHOXY-PHENYL)- DIPHENYL- METHOXYMETHYL]- [1,3]DIOXOLAN-4-YL}-1H- PYRIMIDIN-2-ONE] | 3000 | 11000 | 20000 | 3 | 7000 | 12000 |  |  |  |  |  |  |  | 

From patent US20030013660A1, “Dioxolane analogs for improved inter-cellular delivery” (Shire BioChem Inc., priority 2000, published 2003)
